Where a name gives a salt, the structure may show the parent alone. Read-outs that look alike come from different tables or passages of the source.
Columns and labels:
BTK = target: T1, BTK (Homo sapiens, UniProt Q06187); test: In Vitro BTK Kinase Assay: Btk-PolyGAT-LS Assay; type: biochemical; settings: active BTK enzyme 0.25 nM, polyGAT 100 nM, 30 minutes, TRF readout; read-out: In Vitro BTK Kinase Assay IC50 Score
T1 construct: purchased Upstate 14-552
Description: The purpose of the BTK in vitro assay is to determine compound potency against BTK through the measurement of IC50. Compound inhibition is measured after monitoring the amount of phosphorylation of a fluorescein-labeled polyGAT peptide (Invitrogen PV3611) in the presence of active BTK enzyme (Upstate 14-552), ATP, and inhibitor. The BTK kinase reaction was done in a black 96 well plate (costar 3694). For a typical assay, a 24 μL aliquot of a ATP/peptide master mix (final concentration; ATP […], polyGAT 100 nM) in kinase buffer (10 mM Tris-HCl pH 7.5, 10 mM MgCl2, 200 μM […], 5 mM DTT, 0.01% Triton X-100, and 0.2 mg/ml casein) is added to each well. Next, […] of a 4-fold, 40× compound titration in 100% DMSO solvent is added, followed by adding 15 μL of BTK enzyme mix in 1× kinase buffer (with a final concentration of 0.25 nM). The assay is incubated for 30 minutes before being stopped with 28 μL of a 50 mM EDTA solution. Aliquots (5 uL) of the kinase reaction are transferred to a low volume white 384 well plate (Coming 3674), and 5 μL of a 2× detection buffer (Invitrogen PV3574, with 4 nM Tb—PY20 antibody, Invitrogen PV3552) is added. The plate is covered and incubated for 45 minutes at room temperature. Time resolved fluorescence (TRF) on Molecular Devices M5 (332 nm excitation; 488 nm emission; 518 nm fluorescein emission) is measured. IC50 values are calculated using a four parameter fit with 100% enzyme activity determined from the DMSO control and 0% activity from the EDTA control.

[1] = test system: CD69 expression on CD19+ B cells in human whole blood; test: In Vitro whole blood CD69 Assay; type: cell-based; settings: B-cell, read-out: In Vitro HWB CD69 Assay IC50 Score
Description: Human heparinized venous blood from health donors was aliquoted into 96-well plate and “spiked” with serial dilutions of formula I compounds in DMSO or with DMSO without drug. The final concentration of DMSO in all wells was 0.1%. The plate was incubated at 37° C. for 30 min. Drug-containing samples were stimulated with 0.1 μg/mL mouse anti-human IgD-dextran (1A62) or 20 μg/mL polyclonal rabbit F(ab′)2 anti-human IgD. Phosphate-buffered saline (PBS) was added to the negative control unstimulated sample and the plates were incubated overnight (18 to 22 hours) at 37° C. Cells were stained with fluorochrome-conjugated anti-CD19 and anti-CD69 antibodies. Lyse/fix solution was used to remove red blood cells by hypotonic lysis and to fix the remaining cells, which were then analyzed by flow cytometry. CD19+ B cells were gated and analyzed for CD69 expression.

[2] = human heparinized whole blood, anti-human IgD stimulation overnight, CD19+ B cells, flow cytometry

T1 sequence (Q06187 whole entry): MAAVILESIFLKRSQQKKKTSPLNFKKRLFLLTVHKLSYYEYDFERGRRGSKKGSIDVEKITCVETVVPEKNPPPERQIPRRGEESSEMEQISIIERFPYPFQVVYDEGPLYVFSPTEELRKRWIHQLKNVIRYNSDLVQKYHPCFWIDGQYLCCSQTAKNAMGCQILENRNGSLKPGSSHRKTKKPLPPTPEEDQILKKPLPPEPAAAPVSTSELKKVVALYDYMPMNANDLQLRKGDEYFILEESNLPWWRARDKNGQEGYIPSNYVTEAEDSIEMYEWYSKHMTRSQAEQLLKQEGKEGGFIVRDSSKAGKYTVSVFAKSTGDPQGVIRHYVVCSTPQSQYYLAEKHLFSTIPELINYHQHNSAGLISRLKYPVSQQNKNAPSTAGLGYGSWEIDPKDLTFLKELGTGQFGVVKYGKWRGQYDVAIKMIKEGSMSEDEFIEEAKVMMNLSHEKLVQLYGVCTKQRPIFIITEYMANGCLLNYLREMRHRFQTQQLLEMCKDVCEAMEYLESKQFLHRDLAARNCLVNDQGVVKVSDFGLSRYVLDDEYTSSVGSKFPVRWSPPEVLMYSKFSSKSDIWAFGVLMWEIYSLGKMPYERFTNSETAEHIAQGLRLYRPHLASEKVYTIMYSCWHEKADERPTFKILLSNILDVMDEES

SMILES | IC50 (BTK) [µM] | IC50 [1, 2] [µM] | IC50 ([1]; Homo sapiens) [µM]
Cn1cc(-c2cn3ncnc3c(N3CCC(CNC(=O)c4nnn(C(C)(C)C)n4)CC3)n2)cn1 [Example 72, 2-(tert-butyl)-N-((1-(6-(1-methyl-1H-pyrazol-4-yl)-[1,2,4]triazolo[1,5-a]pyrazin-8-yl)piperidin-4-yl)methyl)-2H-tetrazole-5-carboxamide] | 0.001 to 0.01 | 1 to 10 | 
Cn1cc(-c2cn3nccc3c(-c3ccc(CNC(=O)c4nnn(C(C)(C)C)n4)cc3)n2)cn1 [Example 3, 2-(tert-butyl)-N-(4-(6-(1-methyl-1H-pyrazol-4-yl)pyrazolo[1,5-a]pyrazin-4-yl)benzyl)-2H-tetrazole-5-carboxamide] | < 0.001 | < 1 | 
Cc1cc(-c2nc(-c3cnn(C)c3)cc3nccn23)ccc1CNC(=O)c1noc(C(C)(C)C)n1 [Example 78, 5-(tert-butyl)-N-(2-methyl-4-(7-(1-methyl-1H-pyrazol-4-yl)imidazo[1,2-c]pyrimidin-5-yl)benzyl)-1,2,4-oxadiazole-3-carboxamide] | < 0.001 | < 1 | 
Cn1cc(-c2cn3nccc3c(-c3ccc(CN4CCN(CC(C)(C)C)CC4=O)c(F)c3)n2)cn1 [Example 35, 1-(2-fluoro-4-(6-(1-methyl-1H-pyrazol-4-yl)pyrazolo[1,5-a]pyrazin-4-yl)benzyl)-4-neopentylpiperazin-2-one] | 0.001 to 0.01 | 1 to 10 | 
Cn1cc(-c2cn3nccc3c(N3CCC(F)(CNC(=O)c4noc(C(C)(C)C)n4)CC3)n2)cn1 [Example 160, 5-(tert-butyl)-N-((4-fluoro-1-(6-(1-methyl-1H-pyrazol-4-yl)pyrazolo[1,5-a]pyrazin-4-yl)piperidin-4-yl)methyl)-1,2,4-oxadiazole-3-carboxamide] | 0.001 to 0.01 | 1 to 10 | 
Cn1cc(-c2cn3nccc3c(-c3ccc(CN4CCN(CC(C)(C)C)CC4=O)cc3)n2)cn1 [Example 33, 1-(4-(6-(1-methyl-1H-pyrazol-4-yl)pyrazolo[1,5-a]pyrazin-4-yl)benzyl)-4-neopentylpiperazin-2-one] | 0.001 to 0.01 | 1 to 10 | 
Cc1cc(-c2nc(-c3cnn(C)c3)cn3nccc23)ccc1CN1CCN(CC(C)C)C(C)C1=O (centres unmarked) [Example 36, 4-isobutyl-3-methyl-1-(2-methyl-4-(6-(1-methyl-1H-pyrazol-4-yl)pyrazolo[1,5-a]pyrazin-4-yl)benzyl)piperazin-2-one] | 0.001 to 0.01 | 1 to 10 | 
Cn1cc(-c2cn3nccc3c(-c3ccc(CNC(=O)c4cn(C(C)(C)C)nn4)cc3F)n2)cn1 [Example 112, 1-(tert-butyl)-N-(3-fluoro-4-(6-(1-methyl-1H-pyrazol-4-yl)pyrazolo[1,5-a]pyrazin-4-yl)benzyl)-1H-1,2,3-triazole-4-carboxamide] | 0.001 to 0.01 | 1 to 10 | 
Cc1cc(-c2nc(-c3cnn(C)c3)cn3nccc23)ccc1CN1CCN(CC(C)C)CC1=O [Example 30, 4-isobutyl-1-(2-methyl-4-(6-(1-methyl-1H-pyrazol-4-yl)pyrazolo[1,5-a]pyrazin-4-yl)benzyl)piperazin-2-one] | 0.001 to 0.01 | 1 to 10 | 
Cn1cc(-c2cn3nccc3c(-c3ccc(CNC(=O)c4nnn(C(C)(C)C)n4)c(C(F)F)c3)n2)cn1 [Example 106, 2-(tert-butyl)-N-(2-(difluoromethyl)-4-(6-(1-methyl-1H-pyrazol-4-yl)pyrazolo[1,5-a]pyrazin-4-yl)benzyl)-2H-tetrazole-5-carboxamide] | < 0.001 | < 1 | 
Cn1cc(-c2cn3nccc3c(-c3ccc(CNC(=O)c4nnn(C(C)(C)C)n4)nc3)n2)cn1 [Example 115, 2-(tert-butyl)-N-((5-(6-(1-methyl-1H-pyrazol-4-yl)pyrazolo[1,5-a]pyrazin-4-yl)pyridin-2-yl)methyl)-2H-tetrazole-5-carboxamide] | 0.001 to 0.01 | 1 to 10 | 
Cn1cc(-c2cn3nccc3c(N3CCC(C)(CNC(=O)c4noc(C5(C)CC5)n4)CC3)n2)cn1 [Example 46, N-((4-methyl-1-(6-(1-methyl-1H-pyrazol-4-yl)pyrazolo[1,5-a]pyrazin-4-yl)piperidin-4-yl)methyl)-5-(1-methylcyclopropyl)-1,2,4-oxadiazole-3-carboxamide] | 0.01 to 1 | 1 to 10 | 
Cn1cc(-c2cc(-c3ccc(CNC(=O)c4noc(C5(C)CC5)n4)c(F)c3)c3ccnn3c2)cn1 [Example 67, N-(2-fluoro-4-(6-(1-methyl-1H-pyrazol-4-yl)pyrazolo[1,5-a]pyridin-4-yl)benzyl)-5-(1-methylcyclopropyl)-1,2,4-oxadiazole-3-carboxamide] | < 0.001 |  | < 1
Cn1cc(-c2cc3nccn3c(-c3ccc(CNC(=O)c4ccn(C(C)(C)C)n4)cc3)n2)cn1 [Example 56, 1-(tert-butyl)-N-(4-(7-(1-methyl-1H-pyrazol-4-yl)imidazo[1,2-c]pyrimidin-5-yl)benzyl)-1H-pyrazole-3-carboxamide] | 0.01 to 1 | 1 to 10 | 
Cn1cc(-c2cn3nccc3c(N3CCC(C)(CNC(=O)c4cnc(C(C)(C)C)o4)CC3)n2)cn1 [Example 45, 2-(tert-butyl)-N-((4-methyl-1-(6-(1-methyl-1H-pyrazol-4-yl)pyrazolo[1,5-a]pyrazin-4-yl)piperidin-4-yl)methyl)oxazole-5-carboxamide] | 0.01 to 1 | 1 to 10 | 
Cn1cc(-c2cn3nccc3c(-c3ccc(CNC(=O)c4noc(C(C)(C)C)n4)nc3)n2)cn1 [Example 116, 5-(tert-butyl)-N-((5-(6-(1-methyl-1H-pyrazol-4-yl)pyrazolo[1,5-a]pyrazin-4-yl)pyridin-2-yl)methyl)-1,2,4-oxadiazole-3-carboxamide] | 0.001 to 0.01 | 1 to 10 | 
Cn1cc(-c2cc3nccn3c(-c3ccc(CNC(=O)c4nnn(C(C)(C)C)n4)cc3)n2)cn1 [Example 58, 2-(tert-butyl)-N-(4-(7-(1-methyl-1H-pyrazol-4-yl)imidazo[1,2-c]pyrimidin-5-yl)benzyl)-2H-tetrazole-5-carboxamide] | < 0.001 | < 1 | 
Cn1cc(-c2cn3nccc3c(-c3ccc(CNC(=O)c4cnn(C(C)(C)C)n4)cc3F)n2)cn1 [Example 113, 2-(tert-butyl)-N-(3-fluoro-4-(6-(1-methyl-1H-pyrazol-4-yl)pyrazolo[1,5-a]pyrazin-4-yl)benzyl)-2H-1,2,3-triazole-4-carboxamide] | 0.001 to 0.01 | 1 to 10 | 
Cc1cc(-c2nc(N3CCN(C)CC3)cn3nccc23)ccc1CNC(=O)c1nnn(C(C)(C)C)n1 [Example 130] | 0.001 to 0.01 | 1 to 10 | 
Cc1cc(-c2nc(N3CCOCC3)cn3nccc23)ccc1CNC(=O)c1noc(C2(C)CC2)n1 [Example 126, N-(2-methyl-4-(6-morpholinopyrazolo[1,5-a]pyrazin-4-yl)benzyl)-5-(1-methylcyclopropyl)-1,2,4-oxadiazole-3-carboxamide] | 0.001 to 0.01 |  | 
Cn1cc(-c2cn3nccc3c(N3CCCC(CNC(=O)c4noc(C(C)(C)C)n4)CC3)n2)cn1 (centres unmarked) [Example 166, 5-(tert-butyl)-N-((1-(6-(1-methyl-1H-pyrazol-4-yl)pyrazolo[1,5-a]pyrazin-4-yl)azepan-4-yl)methyl)-1,2,4-oxadiazole-3-carboxamide] | 0.01 to 1 |  | 
CC(C)(C)c1nnc(C(=O)NCc2ccc(-c3nc(N4CCOCC4)cn4nccc34)cc2)o1 [Example 29, 5-(tert-butyl)-N-(4-(6-morpholinopyrazolo[1,5-a]pyrazin-4-yl)benzyl)-1,3,4-oxadiazole-2-carboxamide] | 1 to 10 |  | 
C[C@H]1CN(c2nc(-c3cnn(C)c3)cn3nccc23)CC[C@H]1CNC(=O)c1noc(C2(C)CC2)n1 (single isomer, unassigned) [Example 147] | 0.01 to 1 |  | 
Cn1cc(-c2cn3nccc3c(N3CC[C@H](CNC(=O)c4noc(C(C)(C)C)n4)C(F)(F)C3)n2)cn1 (single isomer, unassigned) [Example 159] | 0.01 to 1 |  | 
Cc1cc(-c2nc(N3CCN(C)CC3)cn3nccc23)ccc1CNC(=O)c1cnn(C(C)(C)C)n1 [Example 124, 2-(tert-butyl)-N-(2-methyl-4-(6-(4-methylpiperazin-1-yl)pyrazolo[1,5-a]pyrazin-4-yl)benzyl)-2H-1,2,3-triazole-4-carboxamide trifluoroacetate] | 0.01 to 1 |  | 

Reference: patent publication US20250034150A1, “BTK INHIBITORS” (BIOGEN MA INC., priority 2021, published 2025)
